Read-outs that look alike come from different tables or passages of the source.
Biological target: T1, human mGlu2 receptor (Homo sapiens, UniProt Q14416)
T1 construct: expressed in transfected cells; host or cells: CHO cells
Test: [35S]GTPγS binding assay, mGluR2 PAM
Format: biochemical
Conditions: for EC50: EC50 expressed in M; for Emax: read-out: GTPγS - hmGluR2 PAM Emax, maximal % effect relative to the control glutamate response
Protocol: [^35S]GTPγS Binding Assay
The [^35S]GTPγS binding assay is a functional membrane-based assay used to study G-protein coupled receptor (GPCR) function whereby incorporation of a non-hydrolysable form of GTP, [^35S]GTPγS (guanosine 5′-triphosphate, labelled with […] ^35S), is measured.
Cells were then collected by scraping in PBS and cell suspension was centrifuged (10 min at 4000 RPM in benchtop centrifuge). Supernatant was discarded and pellet gently resuspended in 50 mM Tris-HCl, pH 7.4 by mixing with a vortex and pipetting up and down. The suspension was centrifuged at 16,000 RPM (Sorvall RC-5C plus rotor SS-34) for 10 minutes and the supernatant discarded. The pellet was homogenized in 5 mM Tris-HCl, pH 7.4 using an ultra-turrax homogenizer and centrifuged again (18,000 RPM, 20 min, 4° C.). The final pellet was resuspended in 50 mM Tris-HCl, pH 7.4 and stored at −80° C. in appropriate aliquots before use. Protein concentration was determined by the Bradford method (Bio-Rad, USA) with bovine serum albumin as standard.
Measurement of mGluR2 positive allosteric modulatory activity of test compounds was performed as follows. Test compounds and glutamate were diluted in assay buffer containing 10 mM HEPES acid, 10 mM HEPES salt, pH 7.4, 100 mM NaCl, 3 mM MgCl2 and 10 μM GDP. Human mGlu2 receptor-containing membranes were thawed on ice and diluted in assay buffer supplemented with 14 μg/ml saponin. Membranes were pre-incubated with compound alone or together with a predefined (˜EC20) concentration of glutamate (PAM assay) for 30 min at 30° C. After addition of [^35S]GTPγS (f c. 0.1 nM), assay mixtures were shaken briefly and further incubated to allow [^35S]GTPγS incorporation on activation (30 minutes, 30° C.). Final assay mixtures contained 7 μg of membrane protein in 10 mM HEPES acid, 10 mM HEPES salt, pH 7.4, 100 mM NaCl, 3 mM MgCl2, 10 μM GDP and 2 μg/ml saponin. […] Filters were washed 6 times with ice-cold 10 mM NaH2PO4/10 mM Na2HPO4, pH 7.4. Filters were then air-dried, and 40 μl of liquid scintillation cocktail (Microscint-O) was added to each well. Membrane-bound radioactivity was counted in a Microplate Scintillation and Luminescence Counter from Perkin Elmer.
The concentration-response curves of representative compounds of the present invention—obtained in the presence of EC20 of mGluR2 agonist glutamate to determine positive allosteric modulation (PAM)—were generated using the Lexis software interface (developed at J&J). Data were calculated as % of the control glutamate response, defined as the maximal response that is generated upon addition of glutamate alone. Sigmoid concentration-response curves plotting these percentages versus the log concentration of the test compound were analyzed using non-linear regression analysis. The concentration producing half-maximal effect is then calculated as EC50.
The pEC50 values below were calculated as the −log EC50, when the EC50 is expressed in M. Emax is defined as relative maximal effect (i.e. maximal % effect relative to the control glutamate response).
All compounds were tested in presence of mGluR2 agonist glutamate at a predetermined EC20 concentration, to determine positive allosteric modulation. pEC50 values were calculated from a concentration-response experiment of at least 8 concentrations.

[1] = GTPγS - hmGluR2 PAM pEC50, in presence of glutamate at EC20
[2] = in presence of glutamate at EC20, read-out: GTPγS - hmGluR2 PAM pEC50 (converted)

T1 sequence (Q14416 19-872): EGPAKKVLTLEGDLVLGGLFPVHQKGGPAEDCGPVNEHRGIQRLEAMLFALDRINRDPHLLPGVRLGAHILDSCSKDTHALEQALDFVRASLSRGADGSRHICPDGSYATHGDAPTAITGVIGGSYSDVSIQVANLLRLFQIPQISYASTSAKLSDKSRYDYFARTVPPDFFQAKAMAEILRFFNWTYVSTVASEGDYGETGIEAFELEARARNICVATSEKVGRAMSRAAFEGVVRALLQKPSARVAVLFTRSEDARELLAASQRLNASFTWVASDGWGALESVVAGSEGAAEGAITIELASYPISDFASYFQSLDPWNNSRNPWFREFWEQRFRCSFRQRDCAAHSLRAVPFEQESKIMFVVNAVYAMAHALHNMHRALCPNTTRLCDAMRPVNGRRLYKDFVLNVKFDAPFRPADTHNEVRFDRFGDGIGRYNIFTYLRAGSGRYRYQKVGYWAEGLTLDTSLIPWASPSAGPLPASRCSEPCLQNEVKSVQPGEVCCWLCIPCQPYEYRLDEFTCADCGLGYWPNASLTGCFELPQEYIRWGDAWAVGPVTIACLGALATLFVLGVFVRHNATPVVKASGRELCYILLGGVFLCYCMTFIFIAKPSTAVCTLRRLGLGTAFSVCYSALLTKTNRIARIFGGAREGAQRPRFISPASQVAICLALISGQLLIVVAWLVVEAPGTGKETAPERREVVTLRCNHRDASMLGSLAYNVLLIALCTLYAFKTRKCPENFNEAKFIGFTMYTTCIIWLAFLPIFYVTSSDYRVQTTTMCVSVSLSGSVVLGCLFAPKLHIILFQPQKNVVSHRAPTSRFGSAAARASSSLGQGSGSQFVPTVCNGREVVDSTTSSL

Structure (SMILES) | EC50 [2] [nM] | further results
CC(Oc1ccc(F)cc1F)c1ccn2c(CC3CCC3)nnc2c1C(F)(F)F (single isomer, unassigned) [Compound 18, 3-(Cyclobutylmethyl)-7-[(1*S)-1-(2,4-difluorophenoxy)ethyl]-8-(trifluoromethyl)[1,2,4]triazolo[4,3-a]pyridine] |  | EC50 [1]: 575 nM; GTPγS - hmGluR2 PAM Emax (maximal % effect relative to the control glutamate response, glutamate at EC20): 213%
CCOCc1nnc2c(C(F)(F)F)c(C(C)Oc3ccc(F)cc3F)ccn12 (centres unmarked) [Compound 19, 7-[1-(2,4-Difluorophenoxy)ethyl]-3-(ethoxymethyl)-8-(trifluoromethyl)[1,2,4]triazolo[4,3-a]pyridine] | 195 | Emax (glutamate at EC20): 297%
CCOCc1nnc2c(C(F)(F)F)c(C(C)Oc3c(F)cc(F)cc3F)ccn12 (single isomer, unassigned) [Compound 22, 3-(Ethoxymethyl)-8-(trifluoromethyl)-7-[(1*R)-1-(2,4,6-trifluorophenoxy)ethyl][1,2,4]triazolo[4,3-a]pyridine] |  | EC50 [1]: 24.5 nM
CC(Oc1ccc(F)cc1F)c1ccn2c(CC3CCC3)nnc2c1C(F)(F)F (single isomer, unassigned) [Compound 17, 3-(Cyclobutylmethyl)-7-[(1*R)-1-(2,4-difluorophenoxy)ethyl]-8-(trifluoromethyl)[1,2,4]triazolo[4,3-a]pyridine] |  | EC50 [1]: 18.6 nM; Emax (glutamate at EC20): 317%
CCCc1nnc2c(C(F)(F)F)c(C(C)Oc3ccc(F)cc3F)ccn12 (single isomer, unassigned) [Compound 32] | 1950 | 
C[C@H](Oc1c(F)cc(F)cc1F)c1ccn2c(CC3CC3)nnc2c1C(F)(F)F [Compound 15, 3-(Cyclopropylmethyl)-8-(trifluoromethyl)-7-[(1S)-1-(2,4,6-trifluorophenoxy)ethyl][1,2,4]triazolo[4,3-a]pyridine] | 6.92 | 
CCCc1nnc2c(C(F)(F)F)c(C(C)Oc3ccc(F)cc3F)ccn12 (single isomer, unassigned) [Compound 31] | 89.1 | 
CCOCc1nnc2c(C(F)(F)F)c(C(C)Oc3ccc(F)cc3F)ccn12 (single isomer, unassigned) [Compound 20, 7-[(1*R)-1-(2,4-Difluorophenoxy)ethyl]-3-(ethoxymethyl)-8-(trifluoromethyl)[1,2,4]triazolo[4,3-a]pyridine] | 85.1 | 
CCCc1nnc2c(C(F)(F)F)c(C(C)Oc3ccc(F)cc3F)ccn12 (centres unmarked) [Compound 30, 7-[1-(2,4-Difluorophenoxy)ethyl]-3-propyl-8-(trifluoromethyl)[1,2,4]triazolo[4,3-a]pyridine] | 126 | 
CCOCc1nnc2c(C(F)(F)F)c(C(C)Oc3c(F)cc(F)cc3F)ccn12 (single isomer, unassigned) [Compound 23, 3-(Ethoxymethyl)-8-(trifluoromethyl)-7-[(1*S)-1-(2,4,6-trifluorophenoxy)ethyl][1,2,4]triazolo[4,3-a]pyridine] |  | EC50 [1]: 1150 nM
CC(Oc1ccc(F)cc1F)c1ccn2c(CC3CCC3)nnc2c1C(F)(F)F (centres unmarked) [Compound 16, 3-(Cyclobutylmethyl)-7-[1-(2,4-difluorophenoxy)ethyl]-8-(trifluoromethyl)[1,2,4]triazolo[4,3-a]pyridine] |  | EC50 [1]: 28.8 nM; Emax (glutamate at EC20): 284%
CCOCc1nnc2c(C(F)(F)F)c(C(C)Oc3ccc(F)cc3F)ccn12 (single isomer, unassigned) [Compound 21, 7-[(1*S)-1-(2,4-Difluorophenoxy)ethyl]-3-(ethoxymethyl)-8-(trifluoromethyl)[1,2,4]triazolo[4,3-a]pyridine] | 479 | 
C[C@H](Oc1cc(F)cc(F)c1)c1ccn2c(CC3CC3)nnc2c1C(F)(F)F [Compound 7, 3-(Cyclopropylmethyl)-7-[(1S)-1-(3,5-difluorophenoxy)ethyl]-8-(trifluoromethyl)[1,2,4]triazolo[4,3-a]pyridine] | 49 | 
Cc1ccc(O[C@@H](C)c2ccn3c(CC4CC4)nnc3c2C(F)(F)F)c(Cl)c1 [Compound 13, 7-[(1S)-1-(2-Chloro-4-methylphenoxy)ethyl]-3-(cyclopropylmethyl)-8-(trifluoromethyl)[1,2,4]triazolo[4,3-a]pyridine] | 17.8 | 

Continued, in another order:

EC50 [2] [nM] | Structure (SMILES) | further results
145 | CC(Oc1ccc(F)cc1)c1ccn2c(CC3CC3)nnc2c1C(F)(F)F (single isomer, unassigned) [Compound 2, 3-(Cyclopropylmethyl)-7-[(1*R)-1-(4-fluorophenoxy)ethyl]-8-(trifluoromethyl)[1,2,4]triazolo[4,3-a]pyridine] | 
871 | C[C@@H](Oc1ccc(F)cc1F)c1ccn2c(CC3CC3)nnc2c1C(F)(F)F [Compound 5, 3-(Cyclopropylmethyl)-7-[(1R)-1-(2,4-difluorophenoxy)ethyl]-8-(trifluoromethyl)[1,2,4]triazolo[4,3-a]pyridine] | 
33.9 | C[C@H](Oc1cc(F)ccc1F)c1ccn2c(CC3CC3)nnc2c1C(F)(F)F [Compound 10, 3-(Cyclopropylmethyl)-7-[(1S)-1-(2,5-difluorophenoxy)ethyl]-8-(trifluoromethyl)[1,2,4]triazolo[4,3-a]pyridine] | 
50.1 | C[C@H](Oc1cccc(F)c1F)c1ccn2c(CC3CC3)nnc2c1C(F)(F)F [Compound 9, 3-(Cyclopropylmethyl)-7-[(1S)-1-(2,3-difluorophenoxy)ethyl]-8-(trifluoromethyl)[1,2,4]triazolo[4,3-a]pyridine] | 
1620 | CC(Oc1ccc(F)cc1)c1ccn2c(CC3CC3)nnc2c1C(F)(F)F (single isomer, unassigned) [Compound 3, 3-(Cyclopropylmethyl)-7-[(1*S)-1-(4-fluorophenoxy)ethyl]-8-(trifluoromethyl)[1,2,4]triazolo[4,3-a]pyridine] | 
102 | COc1cc(F)ccc1O[C@@H](C)c1ccn2c(CC3CC3)nnc2c1C(F)(F)F [Compound 12, 3-(Cyclopropylmethyl)-7-[(1S)-1-(4-fluoro-2-methoxyphenoxy)ethyl]-8-(trifluoromethyl)[1,2,4]triazolo[4,3-a]pyridine] | 
29.5 | Cc1cc(F)ccc1O[C@@H](C)c1ccn2c(CC3CC3)nnc2c1C(F)(F)F [Compound 14, 3-(Cyclopropylmethyl)-7-[(1 S)-1-(4-fluoro-2-methylphenoxy)ethyl]-8-(trifluoromethyl)[1,2,4]triazolo[4,3-a]pyridine] | 
91.2 | C[C@H](Oc1ccc(F)c(F)c1)c1ccn2c(CC3CC3)nnc2c1C(F)(F)F [Compound 8, 3-(Cyclopropylmethyl)-7-[(1S)-1-(3,4-difluorophenoxy)ethyl]-8-(trifluoromethyl)[1,2,4]triazolo[4,3-a]pyridine] | 
5.62 | C[C@H](Oc1c(F)cccc1F)c1ccn2c(CC3CC3)nnc2c1C(F)(F)F [Compound 11, 3-(Cyclopropylmethyl)-7-[(1S)-1-(2,6-difluorophenoxy)ethyl]-8-(trifluoromethyl)[1,2,4]triazolo[4,3-a]pyridine] | 
91.2 | CC(Oc1ccc(F)cc1F)c1ccn2c(CC3CC3)nnc2c1C(F)(F)F (centres unmarked) [Compound 4, 3-(Cyclopropylmethyl)-7-[1-(2,4-difluorophenoxy)ethyl]-8-(trifluoromethyl)[1,2,4]triazolo[4,3-a]pyridine] | 
257 | CC(Oc1ccc(F)cc1)c1ccn2c(CC3CC3)nnc2c1C(F)(F)F (centres unmarked) [Compound 1, 3-(Cyclopropylmethyl)-7-[1-(4-fluorophenoxy)ethyl]-8-(trifluoromethyl)[1,2,4]triazolo[4,3-a]pyridine] | 

From patent publication US9708315B2, “1,2,4-triazolo[4,3-a]pyridine compounds and their use as positive allosteric modulators of MGLUR2 receptors” (Janssen Pharmaceutica NV, priority 2013, dated 2017)
